From ChEMBL document CHEMBL1153902, “Investigations of SCIO-469-like compounds for the inhibition of p38 MAP kinase” (Bioorg Med Chem Lett, 2009)

Assays:
[1] = Selectivity for p38alpha over p38beta
[2] = Inhibition of p38 MAPK assessed as substrate phosphorylation by ELISA
[3] = Inhibition of p38 MAPK assessed as substrate phosphorylation at 10 uM by ELISA

`CN(C)C(=O)C(=O)c1cn(C)c2cc(Cl)c(C(=O)N3CCC(Cc4ccc(F)cc4)CC3)cc12` showed a fold change (FC) [1] of 10.
Compound `O=C(c1[nH]c2ccccc2c1Cl)N1CCN(Cc2ccc(F)cc2)CC1` has an IC50 [2] of 7.57 µM.
With `O=C(c1cc2ccccc2o1)N1CCC(Cc2ccccc2)CC1` the IC50 [2] was 1.75 µM.
With `O=C(c1ccco1)N1CCN(Cc2ccc(F)cc2)CC1` the inhibition [3] was 35%.
In the case of `CC(=O)c1ccc2[nH]c(C(=O)N3CCN(Cc4ccc(F)cc4)CC3)cc2c1`, the inhibition [3] is reported as 45%.
Work on `Cn1c(C(=O)N2CCN(Cc3ccc(F)cc3)CC2)c(Br)c2ccccc21` yielded an IC50 [2] of 2.24 µM.
`CC(=O)c1cccc2cc(C(=O)N3CCN(Cc4ccc(F)cc4)CC3)[nH]c12` showed an IC50 [2] of 3.61 µM.
In the case of `O=C(c1cc2ccccc2[nH]1)N1CCC(Cc2ccccc2)CC1`, the IC50 [2] is reported as 1.09 µM.
Work on `O=C(c1[nH]c2ccccc2c1I)N1CCN(Cc2ccc(F)cc2)CC1` yielded an IC50 [2] of 7.47 µM.
`CN(C)C(=O)C(=O)c1cn(C)c2ccc(NC(=O)N3CCN(Cc4ccc(F)cc4)CC3)cc12` showed an inhibition [3] of 12%.
`CC(C)(C)OC(=O)n1ccc2cc(CNC(=O)N3CCN(Cc4ccc(F)cc4)CC3)ccc21` gave an inhibition [3] of 8%.
For `CC(=O)c1cccc2c(Cl)c(C(=O)N3CCN(Cc4ccc(F)cc4)CC3)[nH]c12`, the IC50 [2] was 2.46 µM.
Compound `Cn1c(C(=O)N2CCN(Cc3ccc(F)cc3)CC2)nc2ccccc21` has an inhibition [3] of 32%.
Work on `O=C(c1cc2ccccc2[nH]1)N1CCN(Cc2ccc(F)cc2)CC1` yielded an IC50 [2] of 3.2 µM.
Compound `O=C(c1ccco1)N1CCN(Cc2ccccc2)CC1` has an inhibition [3] of 20%.
Work on `O=C(c1nc2ccccc2[nH]1)N1CCN(Cc2ccc(F)cc2)CC1` yielded an inhibition [3] of 24%.
Compound `O=C(c1[nH]c2ccccc2c1Br)N1CCN(Cc2ccc(F)cc2)CC1` has an IC50 [2] of 6.46 µM.
Work on `O=C(c1cc2ccccc2[nH]1)N1CCN(Cc2ccccc2)CC1` yielded an IC50 [2] of 5.77 µM.
Compound `CC(=O)c1ccc2[nH]c(C(=O)N3CCN(Cc4ccc(F)cc4)CC3)c(Cl)c2c1` has an IC50 [2] of 6.51 µM.
Work on `Cn1c(C(=O)N2CCN(Cc3ccc(F)cc3)CC2)cc2ccccc21` yielded an IC50 [2] of 1.36 µM.
Compound `CC(=O)c1c(C(=O)N2CCN(Cc3ccc(F)cc3)CC2)[nH]c2ccccc12` has an inhibition [3] of 24%.
Compound `O=C(c1cn2ccccc2n1)N1CCN(Cc2ccc(F)cc2)CC1` has an inhibition [3] of 33%.
In the case of `O=C(c1cc2c(Br)cccc2[nH]1)N1CCN(Cc2ccc(F)cc2)CC1`, the inhibition [3] is reported as 34%.
Work on `Fc1ccc(CN2CCN(Cc3cc4ccccc4[nH]3)CC2)cc1` yielded an inhibition [3] of 25%.
For `Cn1ccc2cc(NC(=O)N3CCN(Cc4ccc(F)cc4)CC3)ccc21`, the inhibition [3] was 28%.
Compound `O=C(c1cc2ccccc2o1)N1CCN(Cc2ccc(F)cc2)CC1` has an IC50 [2] of 8.42 µM.
